Experimental data published in patent US20240000777A1, “USE OF AN ERK INHIBITOR FOR THE TREATMENT OF MYELOFIBROSIS” (Novartis AG, priority 2020, published 2024).

Experiments:
[1] = system: Jak2V617F Erk1-/- Erk2 fl/fl Mx-Cre mice; assay: Genetic deletion of ERK1/2 plus ruxolitinib in Jak2V617F MPN mouse model; type: in vivo; settings: ruxolitinib for 2 weeks combined with ERK1/2 deletion
From the text: Jak2V617F Mx-Cre mouse was crossed with Erk1−/− Erk2 fl/fl Mx-Cre mice to genetically delete ERK1/2 to obtain Jak2V617F Erk1−/− Erk2 fl/fl Mx-Cre offspring.

[2] = system: JAK2V617F PV/MF mouse model; type: in vivo; settings: oral, 14 consecutive days, ruxolitinib 60 mg/kg BID, Compound A 75 mg/kg QD

Structure (SMILES) | normalizing red blood cell count ([1]; FIG. 7B) | reducing the mutant clone ([1]; versus single interventions, FIG. 7A) | polycythemia [2] | elevated hematocrit ([2]; FIG. 3A) | splenomegaly ([2]; FIG. 3B)
N#CC[C@H](C1CCCC1)n1cc(-c2ncnc3[nH]ccc23)cn1 [ruxolitinib, (R)-3-(4-(7H-pyrrolo[2,3-d]pyrimidin-4-yl)-1H-pyrazol-1-yl)-3-cyclopentylpropanenitrile] | more effective | more effective | – | – | –
CNC[C@@H](NC(=O)c1ccc(-c2nc([C@H]3CC[C@H](O)[C@@H](F)C3)cnc2N)cc1F)c1cc(F)cc(Br)c1 [Compound A, 4-(3-amino-6-((1S,3S,4S)-3-fluoro-4-hydroxycyclohexyl)pyrazin-2-yl)-N—((S)-1-(3-bromo-5-fluorophenyl)-2-(methylamino)ethyl)-2-fluorobenzamide] | – | – | significantly normalizes | significantly normalizes | significantly normalizes
